Assay results as given in publication PMC10434227 (Microbiology Spectrum, 2023).
Read-outs that look alike come from different tables or passages of the source.

Assays:
A549 cells [1] = system: A549 cells
A549 cells [2] = system: A549 cells; remark: listed apart in the source
rVACV Nluc/Scarlet [3] = assay: microbe, parasite or virus in culture; type: cell-based, vaccinia virus (VACV)
rVACV Nluc/GFP [4] = assay: microbe, parasite or virus in culture; type: cell-based, vaccinia virus (VACV)
[5] = system: MPXV USA-2003 (NR-2500) clade II; assay: microbe, parasite or virus in culture; type: cell-based, monkeypox virus (MPXV)
in vitro [6] = conditions: human
rVACV Nluc/Scarlet [7] = type: cell-based, vaccinia virus (VACV)
in vitro [8] = conditions: human; remark: listed apart in the source
MPXV = type: cell-based, monkeypox virus (MPXV)
rVACV Nluc/GFP [9] = type: cell-based, vaccinia virus (VACV)
[10] = read-out: EC50 FP (Scarlet fluorescence)
[11] = read-out: EC50 FP (GFP fluorescence)
[12] = Orthopoxvirus vaccinia, A549, read-out: EC50 FP (Scarlet fluorescence)
[13] = Orthopoxvirus vaccinia, A549, read-out: EC50 Nluc
[14] = Orthopoxvirus vaccinia, A549, read-out: EC50 FP (GFP fluorescence)
[15] = Monkeypox virus, A549, read-out: EC50 against MPXV

Compound: Fc1ccc(CNc2ncnc3ccc(F)cc23)cc1 [Spautin-1, spautin-1]
- CC50 (A549 cells [1]): 8000 nM
- CC50 (A549 cells [2]): > 50000 nM
- EC50 (rVACV Nluc/Scarlet [3]; [10]): 6780 nM
- EC50 (rVACV Nluc/Scarlet [3]; read-out: EC50 Nluc): 3040 nM
- EC50 (rVACV Nluc/GFP [4]; [11]): 4430 nM
- EC50 (rVACV Nluc/GFP [4]; read-out: EC50 Nluc): 2800 nM
- EC50 ([5]; read-out: EC50 against MPXV): 3210 nM

Compound: FC(F)(F)c1ccc(/C=C/c2nc(COc3ccc(CCCCn4ccnn4)cc3)co2)cc1 [Mubritinib, mubritinib]
- EC50 (rVACV Nluc/Scarlet [3]; [12]): 50 nM
- EC50 (rVACV Nluc/Scarlet [3]; [13]): 37 nM
- EC50 (rVACV Nluc/Scarlet [3]; [10]): 93 nM
- EC50 (rVACV Nluc/GFP [4]; [14]): 65 nM
- EC50 (rVACV Nluc/GFP [4]; [13]): 33 nM
- EC50 [5, 15]: 38 nM

Compound: CCCCCC[C@H]1C(=O)O[C@H](C)[C@H](NC(=O)c2cccc(NC=O)c2O)C(=O)O[C@@H](C)[C@@H]1OC(=O)CC(C)C [Antimycin A, antimycin A]
- EC50 (rVACV Nluc/Scarlet [3]; [12]): 70 nM
- EC50 (rVACV Nluc/Scarlet [3]; [13]): 90 nM
- EC50 (rVACV Nluc/GFP [4]; [14]): 80 nM
- EC50 (rVACV Nluc/GFP [4]; [13]): 130 nM
- EC50 (rVACV Nluc/GFP [4]; [11]): 60 nM
- EC50 (rVACV Nluc/GFP [4]; read-out: EC50 Nluc): 120 nM
- EC50 [5, 15]: 10 nM

Compound: O=C(NN1C(=O)[C@@H]2[C@@H]3C=C[C@@H]([C@H]4C[C@@H]34)[C@@H]2C1=O)c1ccc(C(F)(F)F)cc1 [Tecovirimat, tecovirimat]
- CC50 (in vitro [6]): > 50000 nM
- EC50 (rVACV Nluc/Scarlet [3]; [13]): 80 nM
- EC50 (rVACV Nluc/Scarlet [3]; read-out: EC50 Nluc): 70 nM
- extracellular viral titers (rVACV Nluc/Scarlet [7]): dose-dependent decrease
- CC50 (in vitro [8]): > 50000 nM
- extracellular viral titers (MPXV): dose-dependent decrease
- extracellular viral titers (rVACV Nluc/GFP [9]): dose-dependent decrease
- inhibitory activity against MPXV (in words) [5]: potently inhibited MPXV
- EC50 [5, 15]: 120 nM
- EC50 ([5]; read-out: EC50 against MPXV): 150 nM

Compound: 2′,3′,5′-triacetyl-6-azauridine [Azaribine]
- CC50 (A549 cells [1]): > 150000 nM
- CC50 (A549 cells [2]): > 150000 nM
- EC50 (rVACV Nluc/Scarlet [3]; [10]): 1320 nM
- EC50 (rVACV Nluc/Scarlet [3]; read-out: EC50 Nluc): 1410 nM
- EC50 (rVACV Nluc/GFP [4]; [11]): 1030 nM
- EC50 (rVACV Nluc/GFP [4]; read-out: EC50 Nluc): 1130 nM

Compound: S=C(NCc1ccc2c(c1)OCO2)N1CCN(c2ncnc3c2oc2ccccc23)CC1 [Amuvatinib, amuvatinib]
- EC50 (rVACV Nluc/Scarlet [3]; [12]): 4760 nM
- EC50 (rVACV Nluc/Scarlet [3]; [13]): 6830 nM
- EC50 (rVACV Nluc/Scarlet [3]; read-out: EC50 Nluc): 6630 nM
- EC50 (rVACV Nluc/GFP [4]; [14]): 3260 nM
- EC50 (rVACV Nluc/GFP [4]; [13]): 3890 nM
- EC50 [5, 15]: 3470 nM

Compound: CC(C)[C@@H]1NC(=O)[C@H](C)OC(=O)[C@@H](C(C)C)NC(=O)[C@@H](C(C)C)OC(=O)[C@H](C(C)C)NC(=O)[C@H](C)OC(=O)[C@@H](C(C)C)NC(=O)[C@@H](C(C)C)OC(=O)[C@H](C(C)C)NC(=O)[C@H](C)OC(=O)[C@@H](C(C)C)NC(=O)[C@@H](C(C)C)OC1=O [Valinomycin, valinomycin]
- EC50 (rVACV Nluc/Scarlet [3]; [12]): 3 nM
- EC50 (rVACV Nluc/Scarlet [3]; [13]): 2 nM
- EC50 (rVACV Nluc/GFP [4]; [14]): 3 nM
- EC50 (rVACV Nluc/GFP [4]; [13]): 2 nM
- EC50 [5, 15]: 1 nM

Compound: COc1c(C)c2c(c(O)c1C/C=C(\C)CCC(=O)O)C(=O)OC2 [Mycophenolic acid, mycophenolic acid]
- CC50 (in vitro [6]): > 150000 nM
- EC50 (rVACV Nluc/Scarlet [3]; [12]): 460 nM
- EC50 (rVACV Nluc/Scarlet [3]; [13]): 490 nM
- CC50 (in vitro [8]): > 150000 nM
- EC50 (rVACV Nluc/GFP [4]; [14]): 590 nM
- EC50 (rVACV Nluc/GFP [4]; [13]): 430 nM
- EC50 [5, 15]: 710 nM

Compound: CC[C@H](CC#N)OC(=O)N[C@@H](C)c1cccc(NC(=O)Nc2ccc(-c3cnco3)c(OC)c2)c1 [AVN-944]
- CC50 (in vitro [6]): > 50000 nM
- EC50 (rVACV Nluc/Scarlet [3]; [12]): 130 nM
- EC50 (rVACV Nluc/Scarlet [3]; [13]): 110 nM
- CC50 (in vitro [8]): > 50000 nM
- EC50 (rVACV Nluc/GFP [4]; [14]): 70 nM
- EC50 (rVACV Nluc/GFP [4]; [13]): 70 nM
- EC50 [5, 15]: 170 nM

Compound: COc1c(C)c2c(c(O)c1C/C=C(\C)CCC(=O)OCCN1CCOCC1)C(=O)OC2 [Mycophenolate mofetil, mycophenolate mofetil]
- CC50 (in vitro [6]): > 150000 nM
- EC50 (rVACV Nluc/Scarlet [3]; [12]): 1200 nM
- EC50 (rVACV Nluc/Scarlet [3]; [13]): 1040 nM
- CC50 (in vitro [8]): > 150000 nM
- EC50 (rVACV Nluc/GFP [4]; [14]): 870 nM
- EC50 (rVACV Nluc/GFP [4]; [13]): 800 nM
- EC50 (rVACV Nluc/GFP [4]; read-out: EC50 Nluc): 930 nM
- EC50 [5, 15]: 1060 nM
- EC50 ([5]; read-out: EC50 against MPXV): 1960 nM

Compound: NC(=O)c1[nH]nc([C@@H]2O[C@H](CO)[C@@H](O)[C@H]2O)c1O [Pyrazofurin, pyrazofurin]
- CC50 (in vitro [6]): > 50000 nM
- EC50 (rVACV Nluc/Scarlet [3]; [12]): 370 nM
- EC50 (rVACV Nluc/Scarlet [3]; [13]): 110 nM
- EC50 (rVACV Nluc/Scarlet [3]; [10]): 270 nM
- CC50 (in vitro [8]): > 50000 nM
- EC50 (rVACV Nluc/GFP [4]; [14]): 530 nM
- EC50 (rVACV Nluc/GFP [4]; [13]): 240 nM
- EC50 [5, 15]: 3400 nM
